Laboratory results: patent US6376480B1, “Vitamin D derivatives with substituents at C-25, process for their production, intermediate products and use for the production of pharmaceutical agents” (Schering Aktiengesellschaft, priority 1995, dated 2002)

How the values were obtained:
HL 60 cells [1] = assay: antagonism of the action of calcitriol in HL 60 cells; type: cell-based, human
HL 60 cells [2] = assay: differentiation induction of HL 60 cells to macrophages (NBT reduction); type: cell-based, human; settings: DR = test substance dose/calcitriol dose for comparable semi-maximum effects; 96 hours incubation
Procedure: It is known in the literature (Mangelsdorf, D. J. et al., J. Cell. Biol. 98: 391-398 (1984)), that the treatment of human leukemia cells (promyelocyte cell line HL 60) in vitro with calcitriol induces the differentiation of cells to macrophages.
HL 60 cells are cultivated in tissue culture medium (RPMI 10% fetal calf serum) at 37° C. in an atmosphere of 5% CO2 in air.
For substance testing, the cells are centrifuged off, and 2.0×10^5 cells/ml in phenol red-free tissue culture medium is taken up. The test substances are dissolved in ethanol and diluted with tissue culture medium without phenol red to the desired concentration. The dilution stages are mixed with the cell suspension at a ratio of 1:10, and 100 μl each of this cell suspension that is mixed with substance is pipetted into an indentation of a 96-hole plate. For control, a cell suspension is mixed analogously with the solvent.
After incubation for 96 hours at 37° C. in 5% CO2 in air, 100 μl of an NBT-TPA solution (nitro blue tetrazolium (NBT), final concentration in the batch of 1 mg/ml, tetradecanoyl phorbolmyristate-13-acetate (TPA), final concentration in the batch of 2×10^−7 mol/l) is pipetted into each indentation of the 96-hole plate in the cell suspension.
By incubation for 2 hours at 37° C. and 5% CO2 in air, NBT is reduced to insoluble formazan because of the intracellular oxygen radical release, stimulated by TPA, in the cells that are differentiated to macrophages.
To complete the reaction, the indentations of the 96-hole plate are suctioned off, and the cells are affixed to the bottom of the plate by adding methanol and dried after affixing. To dissolve the intracellular formazan crystals that are formed, 100 μl of potassium hydroxide (2 mol/l) and 100 μl of dimethyl sulfoxide are pipetted into-each indentation and ultrasonically treated for 1 minute. The concentration of formazan is measured by spectrophotometry at 650 nm.
As a yardstick for the differentiation induction of HL 60 cells to macrophages, the concentration of formed formazan applies.

calcitriol receptor = molecular target: T1, calcitriol receptor (Sus scrofa, UniProt A3RGC1); assay: calcitriol-receptor test (competition with 3H-calcitriol); settings: quotient of concentrations of test substance and calcitriol for 50% competition, receptor protein from intestines of juvenile pigs
T1 sequence (A3RGC1 1-427): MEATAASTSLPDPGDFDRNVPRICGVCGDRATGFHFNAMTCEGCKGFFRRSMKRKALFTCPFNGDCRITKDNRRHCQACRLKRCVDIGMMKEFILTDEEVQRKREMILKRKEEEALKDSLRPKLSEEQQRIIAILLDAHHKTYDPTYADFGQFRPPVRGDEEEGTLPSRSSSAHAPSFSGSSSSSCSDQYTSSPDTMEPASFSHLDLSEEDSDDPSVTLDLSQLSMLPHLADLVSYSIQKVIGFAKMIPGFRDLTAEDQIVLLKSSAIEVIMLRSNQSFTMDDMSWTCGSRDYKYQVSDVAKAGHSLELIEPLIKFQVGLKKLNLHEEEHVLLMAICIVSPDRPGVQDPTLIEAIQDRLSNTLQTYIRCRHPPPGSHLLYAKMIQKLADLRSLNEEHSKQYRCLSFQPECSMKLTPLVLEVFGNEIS
Procedure: The vitamin D activity of the substances according to the invention is determined with the aid of the calcitriol-receptor test. It is carried out with use of a specific receptor protein from the intestines of juvenile pigs.
Then, the samples are centrifuged at 10,000×g for 5 minutes at 4° C. The supernatant is decanted and measured in a β-counter after 1 hour of equilibration in Picofluor 15™.
The competition curves that are obtained with various concentrations of test substance as well as of reference substance (unlabeled calcitriol) at constant concentration of the reference substance (^3H-calcitriol) are placed in relation to one another and a competition factor (KF) is determined.
It is defined as a quotient of the concentrations of the respective test substance and the reference substance, which are necessary for 50% competition: [formula]

| Structure (SMILES) | Competition Factor KF for Receptor Bonding (calcitriol receptor) | antagonism of the action of calcitriol in HL 60 cells (HL 60 cells [1]) | Dose Ratio for Differentiation Induction in HL 60 Cells (HL 60 cells [2]) |
| --- | --- | --- | --- |
| C=C1/C(=C\C=C2/CCC[C@]3(C)[C@@H]([C@H](C)/C=C/[C@@H](O)C4(C(=O)CCCC)CC4)CC[C@@H]23)C[C@@H](O)C[C@@H]1O [Compound 6b, (5Z,7E,22E)-(1S,3R,24R)-25-(1-Oxopentyl)-26,27-cyclo-9,10-secocholesta-5,7,10(19),22-tetraene-1,3,24-triol] | 2 | antagonize the action of calcitriol | 58 |
| C=C1/C(=C\C=C2/CCC[C@]3(C)[C@@H]([C@H](C)/C=C/[C@@H](O)C4(C(=O)CCCCC)CC4)CC[C@@H]23)C[C@@H](O)C[C@@H]1O [Compound 9b, (5Z,7E,22E)-(1S,3R,24R)-25-(1-Oxohexyl)-26,27-cyclo-9,10-secocholesta-5,7,10(19),22-tetraene-1,3,24-triol] | 3 | antagonize the action of calcitriol | >180 |
| C=C1/C(=C\C=C2/CCC[C@]3(C)[C@@H]([C@H](C)/C=C/[C@@H](O)C4(C(=O)c5ccccc5)CC4)CC[C@@H]23)C[C@@H](O)C[C@@H]1O [Compound 10b, (5Z,7E,22E)-(1S,3R,24R)-25-benzoyl-26,27-cyclo-9,10-secocholesta-5,7,10(19),22-tetraene-1,3,24-triol] | 2 |  | 6 |
| C=C1C(=CC=C2CCCC3(C)C2CCC3C(C)C=CC(O)C2(C(=O)C3CC3)CC2)CC(O)CC1O [Compound 12b, (5Z,7E,22E)-(1S,3R,24R)-25-(Cyclopropylcarbonyl)-26,27-cyclo-9,10-secocholesta-5,7,10(19),22-tetraene-1,3,24-triol] | 2 |  | 0.2 |
| C=C1/C(=C\C=C2/CCC[C@]3(C)[C@@H]([C@H](C)/C=C/[C@@H](O)C4(C(=O)/C=C/CCC)CC4)CC[C@@H]23)C[C@@H](O)C[C@@H]1O [Compound 18b, [5Z,7E,22E,25(E)]-(1S,3R,24R)-25-(1-Oxo-2-hexenyl)-26,27-cyclo-9,10-secocholesta-5,7,10(19),22-tetraene-1,3,24-triol] | 2 | antagonize the action of calcitriol | 330 |
| C=C1/C(=C\C=C2/CCC[C@]3(C)[C@@H]([C@H](C)/C=C/[C@@H](O)C4(/C=C/C(=O)OCC)CC4)CC[C@@H]23)C[C@@H](O)C[C@@H]1O [Compound 24b, [5Z,7E,22E,25(E)]-(1S,3R,24R)-25-(3-Ethoxy-3-oxo-1-propenyl)-26,27-cyclo-9,10-secocholesta-5,7,10(19),22-tetraene-1,3,24-triol] | 4 | antagonize the action of calcitriol | >1000 |
| C=C1/C(=C\C=C2/CCC[C@]3(C)[C@@H]([C@H](C)/C=C/[C@@H](O)C4(/C=C/C(=O)OC(C)(C)C)CC4)CC[C@@H]23)C[C@@H](O)C[C@@H]1O [Compound 26b, [5Z,7E,22E,25(E)]-(1S,3R,24R)-25-[3-(1,1-Dimethylethoxy)-3-oxo-1-propenyl]-26,27-cyclo-9,10-secocholesta-5,7,10(19),22-tetraene-1,3,24-triol] | 4 | antagonize the action of calcitriol | >1000 |
| C=C1C(=CC=C2CCCC3(C)C2CCC3C(C)(C)C=CC(O)C2(C(C)=O)CC2)CC(O)CC1O [Compound 33a, (5Z,7E,22E)-(1S,3R,24S)-25-acetyl-20-methyl-26,27-cyclo-9,10-secocholesta-5,7,10(19),22-tetraene-1,3,24-triol] | 4 |  | 0.5 |
| C=C1C(=CC=C2CCCC3(C)C2CCC3C(C)(C)C=CC(O)C2(C(C)=O)CC2)CC(O)CC1O [Compound 33b, (5Z,7E,22E)-(1S,3R,24R)-25-acetyl-20-methyl-26,27-cyclo-9,10-secocholesta-5,7,10(19),22-tetraene-1,3,24-triol] | 4 |  | 0.4 |
| C=C1C(=CC=C2CCCC3(C)C2CCC3C(C)(C)C=CC(O)C2(C(=O)CCC)CC2)CC(O)CC1O [Compound 35a, (5Z,7E,22E)-(1S,3R,24S)-20-methyl-25-(1-oxobutyl)-26,27-cyclo-9,10-secocholesta-5,7,10(19),22-tetraene-1,3,24-triol] | 7 |  | 0.3 |

Second part, led by results:

| Competition Factor KF for Receptor Bonding (calcitriol receptor) | Structure (SMILES) | antagonism of the action of calcitriol in HL 60 cells (HL 60 cells [1]) | Dose Ratio for Differentiation Induction in HL 60 Cells (HL 60 cells [2]) |
| --- | --- | --- | --- |
| 2 | C=C1C(=CC=C2CCCC3(C)C2CCC3C(C)(C)C=CC(O)C2(C(=O)CCC)CC2)CC(O)CC1O [Compound 35b, (5Z,7E,22E)-(1S,3R,24R)-20-methyl-25-(1-oxobutyl)-26,27-cyclo-9,10-secocholesta-5,7,10(19),22-tetraene-1,3,24-triol] |  | 0.2 |
| 48 | C=C1/C(=C\C=C2/CCC[C@]3(C)[C@@H](C(C)(C)/C=C/[C@H](O)C4(C(=O)CCCCCCC)CC4)CC[C@@H]23)C[C@@H](O)C[C@@H]1O [Compound 43a, (5Z,7E,22E)-(1S,3R,24S)-20-methyl-25-(1-oxooctyl)-26,27-cyclo-9,10-secocholesta-5,7,10(19),22-tetraene-1,3,24-triol] | antagonize the action of calcitriol | >1000 |
| 33 | C=C1/C(=C\C=C2/CCC[C@]3(C)[C@@H](C(C)(C)/C=C/[C@@H](O)C4(C(=O)CCCCCCC)CC4)CC[C@@H]23)C[C@@H](O)C[C@@H]1O [Compound 43b, (5Z,7E,22E)-(1S,3R,24R)-20-methyl-25-(1-oxooctyl)-26,27-cyclo-9,10-secocholesta-5,7,10(19),22-tetraene-1,3,24-triol] | antagonize the action of calcitriol | >1000 |
| 4.5 | CC(=O)C1(C(O)C=CC(C)C2CCC3C(=CC=C4CC(O)CC(O)C4)CCCC32C)CC1 [Compound 55b, (7E,22E)-(1R,3R,24R)-25-Acetyl-26,27-cyclo-19-nor-9,10-secocholesta-5,7,22-triene-1,3,24-triol] |  | 0.2 |
| 3 | CCCCC(=O)C1([C@H](O)/C=C/[C@@H](C)[C@H]2CC[C@H]3/C(=C/C=C4C[C@@H](O)C[C@H](O)C4)CCC[C@]23C)CC1 [Compound 58b, (7E,22E)-(1R,3R,24R)-25-(1-Oxopentyl)-26,27-cyclo-19-nor-9,10-secocholesta-5,7,22-triene-1,3,24-triol] | antagonize the action of calcitriol | 160 |
| 3 | CCCCCC(=O)C1([C@H](O)/C=C/[C@@H](C)[C@H]2CC[C@H]3/C(=C/C=C4C[C@@H](O)C[C@H](O)C4)CCC[C@]23C)CC1 [Compound 61b, (7E,22E)-(1R,3R,24R)-25-(1-Oxohexyl)-26,27-cyclo-19-nor-9,10-secocholesta-5,7,22-triene-1,3,24-triol] | antagonize the action of calcitriol | >1000 |
| 10 | CC(=O)C1(C(O)C=CC(C)(C)C2CCC3C(=CC=C4CC(O)CC(O)C4)CCCC32C)CC1 [Compound 81a, (7E,22E)-(1R,3R,24S)-25-Acetyl-20-methyl-26,27-cyclo-19-nor-9,10-secocholesta-5,7,22-triene-1,3,24-triol] |  | 0.2 |
| 3 | CC(=O)C1(C(O)C=CC(C)(C)C2CCC3C(=CC=C4CC(O)CC(O)C4)CCCC32C)CC1 [Compound 81b, (7E,22E)-(1R,3R,24R)-25-acetyl-20-methyl-26,27-cyclo-19-nor-9,10-secocholesta-5,7,22-triene-1,3,24-triol] |  | 0.1 |
